Laboratory results published in a melting point compilation (Tetko et al.; mined from patent text by program, amines drawn as free bases though some values may be those of a salt).

CSC(=S)C1(c2ccccn2)SCCCS1 showed a melting point of 91 °C.
With C=C(CCC(C)C1CCC2C3=C(C(=O)CC21C)C1(C)CCC(=O)C(C)C1CC3)C(C)C(=O)OC (centres undefined) the melting point was 100 to 102 °C.
Work on Fc1ccc2[nH]cc(Cc3ccncc3)c2c1 yielded a melting point of 141 to 142 °C.
In the case of C[Si](C)(C)c1c(CCC=O)cnc2c1CCO2, the melting point is reported as 59 to 60 °C.
c1ccc(-c2cc3c(N4CCOCC4)nnc(N4CCOCC4)c3cn2)cc1 showed a melting point of 186 to 188 °C.
For CCC(CC)COc1cccc2nc(C)c(C(=O)O)c(N)c12, the melting point was 145 to 151 °C.
With Cc1nc(-c2ccc(OCC(F)(F)C(F)F)cc2)sc1C(=O)O the melting point was 167 to 168 °C.
With ClCc1nc(Cl)c2sccc2n1 the melting point was 101 to 102 °C.
For COC(=O)COc1ccc(SCc2cc(-c3ccc(C(F)(F)F)cc3)on2)c2c1CCCO2, the melting point was 112 to 113 °C.
In the case of COc1ccc([C@H]2CC[C@H](c3ccc(OC)c(OC)c3)O2)cc1OC (relative stereo), the melting point is reported as 114 to 115 °C.
Cc1c(Cc2ccc(F)c(Cl)c2)sc2c(-c3cccc(C(=O)NCCO)c3)cccc12 gave a melting point of 146 to 147 °C.
Work on C=C(c1cncn1Cc1ccccc1)C(c1ccc(C)cc1)c1ccc(C)cc1 yielded a melting point of 216 to 220 °C.
Work on CCOC(=O)c1[nH]ccc1N yielded a melting point of 197 to 200 °C.
With Nc1ccc(-c2ncnn2-c2ccc(Br)cc2)cc1 the melting point was 128 to 130 °C.
CCCC(=O)Nc1cccc2c1C(=O)c1c-2n[nH]c1-c1ccc(OC)cc1 showed a melting point of 282 °C.
In the case of O=[N+]([O-])c1cc(Cl)ccc1NCCSSCCNc1ccc(Cl)cc1[N+](=O)[O-], the melting point is reported as 187 to 188 °C.
COc1ccc(NCC(O)CO)cc1 (centres undefined) showed a melting point of 151 to 153 °C.
For COC(=O)c1ccc2c(c1)Sc1ccccc1N=C2Cl, the melting point was 134 to 136 °C.
CCOC(=O)C1=C(COCc2nnn(CCNc3nc(N)n[nH]3)n2)NC(C)=C(C(=O)OC)C1c1cccc(Cl)c1Cl (centres undefined) gave a melting point of 85 °C.
In the case of CCN(Cc1cc(Br)ccc1N)c1ccc(C(N)=O)nn1, the melting point is reported as 208 to 210 °C.
With O=c1cc(O)c2c([nH]1)CCCCC2 the melting point was greater than 270 °C.
For CC(=O)Oc1c(C)c(C)c2c(c1C)CCC(C)(O)O2 (centres undefined), the melting point was 127 to 132 °C.
In the case of O=C(NN1CCCCC1)c1nc(-c2ccc(Cl)cc2Cl)c(-c2ccc(Cl)cc2)o1, the melting point is reported as 165 °C.
With COc1ccc(OC(C(=O)N(C)C)C2(O)CCCCC2)cc1 (centres undefined) the melting point was 98 to 99 °C.
For CCCc1cc2ccc(CC(=O)O)cc2[nH]1, the melting point was 85 to 87 °C.
With CN1C(O)=C(C(=O)Nc2ccc(Cl)cc2)c2sccc2S1(=O)=O the melting point was 172 °C.
O=C(O)c1ccc2c(c1)C(=O)c1ccccc1S2(=O)=O showed a melting point of 276 °C.
With Cc1cc(Nc2ccn(-c3ccccc3)n2)cc(C)c1OC(=O)CC#N the melting point was 116 to 117 °C.
For CC(CO)CCn1c(C(=O)NCc2cc(C(F)(F)F)cc(C(F)(F)F)c2)c(-c2ccccc2)c2cccnc2c1=O (racemic), the melting point was 213 to 214 °C.
For Cc1ccc(N)cc1Nc1nccc(-c2cccnc2)n1, the melting point was 138 to 140 °C.
Work on COc1ccc(C2=NOC(CN=C=S)C2)cc1 (centres undefined) yielded a melting point of 92 to 94 °C.
Compound Cc1nc(-c2ccc(-c3ccc(C(=O)Nc4cc(OCCN(C)C)ccc4Cl)cc3)c(C)c2)no1 has a melting point of 101 to 102 °C.
Work on C#CCOc1ccccc1OS(=O)(=O)NC(=O)Nc1nc(OC)cc(OC)n1 yielded a melting point of 125 to 126 °C.
In the case of CC(C)n1nc(-c2c(NCc3ccco3)nc(N)nc2-c2ccccc2)ccc1=O, the melting point is reported as 213 to 214 °C.
Nn1c(C(F)(F)F)cc(=O)n(-c2ccc(O)cc2)c1=O showed a melting point of 150 to 155 °C.
Work on N#Cc1cnn(-c2ccc(Cl)c(Cl)c2Cl)c1Cl yielded a melting point of 124 to 126 °C.
CC(=NNC(=S)N1CC2CCC(CC2)C1)c1ccccn1 showed a melting point of 156 °C.
Compound CC(C)(C)c1nnc(S)o1 has a melting point of 79 to 80 °C.
Compound O=c1[nH]c2cc(Cl)c(Cl)cc2[n+]([O-])c1-c1ccccc1O has a melting point of 266 to 268 °C.
Compound O=C(O)CCCCN(C(=O)c1ccc(Cl)cc1)c1cccc2ccccc12 has a melting point of 169 to 170 °C.
Compound N#Cc1ccc2[nH]cc(CCN)c2c1 has a melting point of 102 to 105 °C.
Compound O=C(Oc1ccc(OC(=O)c2cc(O)cc(O)c2)c2ccccc12)c1cc(O)cc(O)c1 has a melting point of 201 to 203 °C.
CCOC(=O)/C=C(C)/C(F)=C/C=C(C)/C=C/c1c(C)sc(C)c1C showed a melting point of 73 to 75 °C.
For COc1ccc(-c2sc3cc(OC)ccc3c2C(=O)c2ccccc2)cc1, the melting point was 100 to 102 °C.
With O=C1CCC(N2Cc3c(OCc4ccc(CN5CCN(S(=O)(=O)C(F)(F)F)CC5)cc4)cccc3C2=O)C(=O)N1 (centres undefined) the melting point was 135 to 137 °C.
For Cc1nnc(-c2ccc3occ(-c4ccc(S(=O)(=O)N(C)C)cc4)c3c2)o1, the melting point was 246 to 247 °C.
Compound COC(=O)c1ccc(OC[C@H](C)N(C)C(=O)C(F)(F)F)cc1 has a melting point of 73 to 75 °C.
CNC(=O)C1CCCc2c1c1cc(OC)ccc1n2Cc1ccccc1 (centres undefined) gave a melting point of 259 to 261 °C.
For CC1(c2ccc(N)cc2)C(=O)Nc2cc(Cl)cc(Cl)c2C1=O (centres undefined), the melting point was 226 to 227 °C.
